Test results as given in ChEMBL document CHEMBL1128393 (J Med Chem, 1995).

What was measured:
[1] = target: T1, Cytochrome P450 17 (Steroid 17-alpha-hydroxylase/17,20 lyase) (Rattus norvegicus, UniProt P11715); assay: in vitro
T1 sequence (P11715 whole entry): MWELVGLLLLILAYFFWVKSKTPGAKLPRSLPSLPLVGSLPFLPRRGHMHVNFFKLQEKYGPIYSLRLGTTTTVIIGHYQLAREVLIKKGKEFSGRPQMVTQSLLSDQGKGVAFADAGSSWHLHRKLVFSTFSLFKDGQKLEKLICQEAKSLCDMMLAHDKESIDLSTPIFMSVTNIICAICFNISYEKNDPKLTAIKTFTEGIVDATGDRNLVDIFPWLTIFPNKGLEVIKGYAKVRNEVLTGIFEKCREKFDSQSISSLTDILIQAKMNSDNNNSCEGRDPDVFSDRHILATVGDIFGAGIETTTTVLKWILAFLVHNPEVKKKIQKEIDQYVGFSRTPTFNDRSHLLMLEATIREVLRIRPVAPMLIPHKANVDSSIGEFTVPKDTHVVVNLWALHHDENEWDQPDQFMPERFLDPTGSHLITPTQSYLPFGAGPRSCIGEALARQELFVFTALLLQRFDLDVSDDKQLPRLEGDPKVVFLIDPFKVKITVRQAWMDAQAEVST

Rattus norvegicus [2] = species: Rattus norvegicus; type: functional
Rattus norvegicus [3] = species: Rattus norvegicus; type: functional; remark: listed apart in the source
Aromatase [4] = target: T2, Aromatase (Rattus norvegicus, UniProt P22443); conditions: in vivo, 30 mg/kg
T2 sequence (P22443 whole entry): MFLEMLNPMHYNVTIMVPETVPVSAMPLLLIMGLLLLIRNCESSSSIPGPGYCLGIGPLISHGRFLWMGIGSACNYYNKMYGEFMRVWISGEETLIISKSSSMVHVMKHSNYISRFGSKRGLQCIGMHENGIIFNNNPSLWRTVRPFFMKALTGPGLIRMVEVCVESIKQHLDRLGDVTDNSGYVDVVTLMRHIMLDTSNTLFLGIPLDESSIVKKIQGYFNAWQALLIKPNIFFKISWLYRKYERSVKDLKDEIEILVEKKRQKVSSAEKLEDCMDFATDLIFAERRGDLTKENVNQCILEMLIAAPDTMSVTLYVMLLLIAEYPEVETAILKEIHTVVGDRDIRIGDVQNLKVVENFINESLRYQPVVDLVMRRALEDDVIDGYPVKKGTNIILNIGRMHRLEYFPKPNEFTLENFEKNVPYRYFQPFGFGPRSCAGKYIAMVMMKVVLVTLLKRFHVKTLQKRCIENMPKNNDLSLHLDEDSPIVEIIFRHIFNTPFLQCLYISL

Rattus norvegicus [5] = species: Rattus norvegicus; type: functional; remark: listed apart in the source
Rattus norvegicus [6] = species: Rattus norvegicus; type: functional; remark: listed apart in the source
Rattus norvegicus [7] = species: Rattus norvegicus; type: functional; remark: listed apart in the source
Rattus norvegicus [8] = species: Rattus norvegicus; type: functional; remark: listed apart in the source
Rattus norvegicus [9] = species: Rattus norvegicus; type: functional; remark: listed apart in the source
[10] = target: T3, Cytochrome P450 11B2, mitochondrial (Rattus norvegicus, UniProt P30099)
T3 sequence (P30099 whole entry): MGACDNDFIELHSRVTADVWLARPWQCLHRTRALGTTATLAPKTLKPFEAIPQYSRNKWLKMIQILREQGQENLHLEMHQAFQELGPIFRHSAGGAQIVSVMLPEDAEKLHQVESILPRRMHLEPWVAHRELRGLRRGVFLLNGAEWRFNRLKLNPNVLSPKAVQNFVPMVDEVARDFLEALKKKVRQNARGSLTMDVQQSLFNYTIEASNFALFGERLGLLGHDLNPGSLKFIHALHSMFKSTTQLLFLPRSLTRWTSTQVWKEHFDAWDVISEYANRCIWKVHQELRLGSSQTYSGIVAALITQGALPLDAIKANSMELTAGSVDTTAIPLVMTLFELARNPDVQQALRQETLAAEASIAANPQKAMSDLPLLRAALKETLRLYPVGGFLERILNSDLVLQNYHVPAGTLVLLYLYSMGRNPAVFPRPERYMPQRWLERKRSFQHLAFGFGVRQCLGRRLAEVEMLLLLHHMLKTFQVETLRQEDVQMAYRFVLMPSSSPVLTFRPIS

[11] = target: T4, Cytochrome P450 18 hydroxylase (Cytochrome P450 11B2, mitochondrial) (Homo sapiens, UniProt P19099); assay: in vitro; conditions: cattle
T4 sequence (P19099 whole entry): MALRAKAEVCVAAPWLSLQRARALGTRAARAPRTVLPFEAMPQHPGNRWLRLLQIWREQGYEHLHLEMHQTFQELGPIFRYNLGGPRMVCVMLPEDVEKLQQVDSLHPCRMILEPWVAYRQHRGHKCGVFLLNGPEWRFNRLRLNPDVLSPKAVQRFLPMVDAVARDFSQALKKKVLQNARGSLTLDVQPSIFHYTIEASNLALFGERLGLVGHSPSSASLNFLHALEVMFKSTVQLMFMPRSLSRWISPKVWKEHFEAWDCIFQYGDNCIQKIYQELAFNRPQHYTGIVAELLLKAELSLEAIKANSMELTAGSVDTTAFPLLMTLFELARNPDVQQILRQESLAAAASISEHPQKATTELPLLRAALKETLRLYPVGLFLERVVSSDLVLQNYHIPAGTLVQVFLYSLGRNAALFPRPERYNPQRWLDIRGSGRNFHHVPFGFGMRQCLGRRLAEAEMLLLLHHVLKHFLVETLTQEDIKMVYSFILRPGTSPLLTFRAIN

[12] = target: T3, Cytochrome P450 11B2, mitochondrial; remark: listed apart in the source
Aromatase [13] = target: T2, Aromatase; conditions: in vivo, 30 mg/kg; remark: listed apart in the source
Rattus norvegicus [14] = species: Rattus norvegicus; type: functional; remark: listed apart in the source
[15] = target: T5, Steroid 17-alpha-hydroxylase/17,20 lyase (Rattus norvegicus, UniProt P11715); conditions: 125 µM
T5 sequence (P11715 whole entry): T1 sequence (P11715 whole entry)

Rattus norvegicus [16] = species: Rattus norvegicus; type: functional; remark: listed apart in the source
Rattus norvegicus [17] = species: Rattus norvegicus; type: functional; remark: listed apart in the source
Rattus norvegicus [18] = species: Rattus norvegicus; type: functional; remark: listed apart in the source
Aromatase [19] = target: T2, Aromatase
Rattus norvegicus [20] = species: Rattus norvegicus; type: functional; remark: listed apart in the source
Rattus norvegicus [21] = species: Rattus norvegicus; type: functional; remark: listed apart in the source
[22] = target: T6, Cytochrome P450 11B1, mitochondrial (Homo sapiens, UniProt P15538)
T6 sequence (P15538 whole entry): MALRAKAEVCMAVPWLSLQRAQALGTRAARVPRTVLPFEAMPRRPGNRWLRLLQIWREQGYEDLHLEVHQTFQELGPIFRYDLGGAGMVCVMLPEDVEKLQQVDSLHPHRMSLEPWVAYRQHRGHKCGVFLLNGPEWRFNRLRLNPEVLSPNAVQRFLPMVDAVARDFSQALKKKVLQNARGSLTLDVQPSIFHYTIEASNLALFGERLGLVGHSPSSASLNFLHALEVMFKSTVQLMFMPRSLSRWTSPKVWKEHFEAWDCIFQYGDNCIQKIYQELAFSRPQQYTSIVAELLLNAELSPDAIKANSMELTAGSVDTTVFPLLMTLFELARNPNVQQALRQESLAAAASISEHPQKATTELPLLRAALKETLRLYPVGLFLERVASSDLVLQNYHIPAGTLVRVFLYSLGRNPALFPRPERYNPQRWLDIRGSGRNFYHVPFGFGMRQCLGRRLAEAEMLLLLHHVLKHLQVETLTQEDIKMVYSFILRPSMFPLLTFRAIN

Rattus norvegicus [23] = species: Rattus norvegicus; type: functional; remark: listed apart in the source
Rattus norvegicus [24] = species: Rattus norvegicus; type: functional; remark: listed apart in the source
Rattus norvegicus [25] = species: Rattus norvegicus; type: functional; remark: listed apart in the source
Rattus norvegicus [26] = species: Rattus norvegicus; type: functional; remark: listed apart in the source
Rattus norvegicus [27] = species: Rattus norvegicus; type: functional; remark: listed apart in the source
Aromatase [28] = target: T2, Aromatase; conditions: in vivo, 30 mg/kg; remark: listed apart in the source
Aromatase [29] = target: T2, Aromatase; conditions: in vivo, 30 mg/kg; remark: listed apart in the source
Aromatase [30] = target: T2, Aromatase; conditions: in vivo, 30 mg/kg; remark: listed apart in the source
[31] = target: T3, Cytochrome P450 11B2, mitochondrial; remark: listed apart in the source

**Q.** Which results are given for `c1ccc2c(c1)CCC1C(c3ccncc3)C21` (stereo not given)?
**A.** inhibition at 125 µM [1]: 36%; Tumors (Rattus norvegicus [2]): 28%; Tumors (Rattus norvegicus [3]): 16%; Mean (Aromatase [4]): 124; Tumors (Rattus norvegicus [5]): 47%; No. of tumors (Rattus norvegicus [6]): 1; Tumors (Rattus norvegicus [7]): 9%; Change of tumor area (Rattus norvegicus [8]): 36%; No. of tumors (Rattus norvegicus [9]): 32; IC50 [10]: 3 µM; inhibition at 1 µM [11]: 55%

**Q.** `Oc1ccc2c(c1)C1C(CC2)C1c1ccncc1` (stereo not given) was tested. Which IC50 [12] did it give?
**A.** 7 µM

**Q.** What does the source list for `Oc1ccc2c(c1)CCC1C(c3ccncc3)C21` (stereo not given)?
**A.** inhibition at 125 µM [1]: 41%; inhibition at 1 µM [11]: 36%

**Q.** With `COc1cc2c(cc1Br)CCC1C(c3ccncc3)C21` (stereo in doubt; 7) as the compound, how does the Effect (Aromatase [13]) read?
**A.** 176

**Q.** `COc1cccc2c1CCC1C(c3ccncc3)C21` (stereo not given) was tested. Which inhibition at 125 µM [1] did it give?
**A.** 51%

**Q.** What about the inhibition at 1 µM [11] of the same compound?
**A.** 38%

**Q.** With `COc1ccc2c(c1)C1C(CC2)C1c1ccncc1` (stereo in doubt; 4) as the compound, how does the No. of tumors (Rattus norvegicus [14]) read?
**A.** 25

**Q.** And the Inhibition [15]?
**A.** 47%

**Q.** What about the No. of tumors (Rattus norvegicus [16]) of the same compound?
**A.** 10

**Q.** And the “Change of tumor area” value (Rattus norvegicus [17])?
**A.** 55%

**Q.** And the Tumors (Rattus norvegicus [18])?
**A.** 15%

**Q.** What about the IC50 (Aromatase [19]) of the same compound?
**A.** 0.265 µM

**Q.** And the Tumors (Rattus norvegicus [20])?
**A.** 37%

**Q.** And the Tumors (Rattus norvegicus [21])?
**A.** 20%

**Q.** And the IC50 [22]?
**A.** 75 µM

**Q.** And the Effect (Aromatase [13])?
**A.** 132

**Q.** And the Tumors (Rattus norvegicus [3])?
**A.** 15%

**Q.** And the Tumors (Rattus norvegicus [5])?
**A.** 52%

**Q.** And the No. of tumors (Rattus norvegicus [23])?
**A.** 33

**Q.** What about the IC50 [12] of the same compound?
**A.** 15 µM

**Q.** What about the Tumors (Rattus norvegicus [24]) of the same compound?
**A.** 0%

**Q.** What about the Tumors (Rattus norvegicus [25]) of the same compound?
**A.** 18%

**Q.** And the Tumors (Rattus norvegicus [26])?
**A.** 43%

**Q.** What about the “Change of tumor area” value (Rattus norvegicus [8]) of the same compound?
**A.** 29%

**Q.** What about the No. of tumors (Rattus norvegicus [27]) of the same compound?
**A.** 5

**Q.** What about the inhibition at 1 µM [11] of the same compound?
**A.** 45%

**Q.** What does the source list for `COc1ccc2c(c1)C1C(CC2)C1(C)c1ccncc1` (stereo not given)?
**A.** inhibition at 125 µM [1]: 68%; Effect (Aromatase [13]): 139

**Q.** Which results are given for `COc1ccc2c(c1)C1C(CC2)C1c1ccncc1` (stereo in doubt; (-)-4)?
**A.** Inhibition [15]: 45%; IC50 [22]: 30 µM; IC50 [12]: 10 µM

**Q.** `C[C@]12CCC(=O)C=C1CC[C@@H]1[C@@H]2CC[C@]2(C)C(=O)CC[C@@H]12` [ANDROSTENEDIONE] was tested. Which Mean (Aromatase [28]) did it give?
**A.** 187

**Q.** What about the Mean (Aromatase [29]) of the same compound?
**A.** 138

**Q.** What about the Mean (Aromatase [30]) of the same compound?
**A.** 202

**Q.** What does the source list for `COc1ccc2c(c1)C1C(CC2)C1c1ccncc1` (single isomer, unassigned; (+))?
**A.** inhibition at 125 µM [1]: 54%; IC50 [22]: 95 µM; IC50 [12]: 6 µM

**Q.** With `CCC1(c2ccc(N)cc2)CCC(=O)NC1=O` (stereo not given) [AMINOGLUTETHIMIDE] as the compound, how does the IC50 [31] read?
**A.** 50 µM

**Q.** What about the IC50 [10] of the same compound?
**A.** 80 µM
